Reference: patent publication US20080176854A1, “Nitro-Substituted Phenyl-Piperazine Compounds, Their Preparation and Use in Medicaments” (Laboratorios Del Dr. Esteve S.A, priority 2004, published 2008)

target: T1, 5HT6-human recombinant receptor (Homo sapiens, UniProt P50406); assay: Binding to serotonin receptor 5-HT6 ([3H]-LSD radioligand displacement); details: membranes of HEK-293 cells expressing the receptor; radioligand [3H]-LSD 2.7 nM; 60 minutes at 37° C; triplicate
T1 construct: purchased Receptor Biology; host or cells: HEK-293 cell membranes
T1 sequence (P50406 whole entry): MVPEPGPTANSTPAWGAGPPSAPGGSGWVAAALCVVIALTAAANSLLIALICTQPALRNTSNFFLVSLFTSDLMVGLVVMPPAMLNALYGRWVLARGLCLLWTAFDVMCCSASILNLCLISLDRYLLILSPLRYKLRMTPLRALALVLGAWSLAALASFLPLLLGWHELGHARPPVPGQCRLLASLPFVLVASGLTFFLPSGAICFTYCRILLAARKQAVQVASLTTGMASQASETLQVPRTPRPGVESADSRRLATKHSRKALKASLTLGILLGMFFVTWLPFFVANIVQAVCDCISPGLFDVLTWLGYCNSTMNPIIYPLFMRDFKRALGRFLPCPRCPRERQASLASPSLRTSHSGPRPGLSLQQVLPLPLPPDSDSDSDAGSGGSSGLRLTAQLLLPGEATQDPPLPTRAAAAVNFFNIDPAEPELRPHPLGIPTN
Description: I) Binding to Serotonin Receptor 5-HT6
Cell membranes of HEK-293 cells expressing the 5HT6-human recombinant receptor were supplied by Receptor Biology. In said membranes the receptor concentration is 2.18 pmol/mg protein and the protein concentration is 9.17 mg/ml. The experimental protocol follows the method of B. L. Roth et al. [B. L. Roth, S. C. Craigo, M. S. Choudhary, A. Uluer, F. J. Monsma, Y. Shen, H. Y. Meltzer, D. R. Sibley: Binding of Typical and Atypical Antipsychotic Agents to 5-Hydroxytryptamine-6 and Hydroxytryptamine-7 Receptors. The Journal of Pharmacology and Experimental Therapeutics, 1994, 268, 1403] with the following slight changes. The respective part of the literature description is hereby incorporated by reference and forms part of the disclosure.
The commercial membrane is diluted (1:40 dilution) with the binding buffer: 50 mM Tris-HCl, 10 mM MgCl2, 0.5 mM EDTA (pH 7.4). The radioligand used is [^3H]-LSD at a concentration of 2.7 nM with a final volume of 200 μl. Incubation is initiated by adding 100 μl of membrane suspension, (≈22.9 μg membrane protein), and is prolonged for 60 minutes at a temperature of 37° C. The incubation is ended by fast filtration in a Brandel Cell Harvester through fiber glass filters made by Schleicher & Schuell G F 3362 pretreated with a solution of polyethylenimine at 0.5%. The filters are washed three times with three milliliters of buffer Tris-HCl 50 mM pH 7.4. The filters are transferred to flasks and 5 ml of Ecoscint H liquid scintillation cocktail are added to each flask. The flasks are allowed to reach equilibrium for several hours before counting with a Wallac Winspectral 1414 scintillation counter. Non-specific binding is determined in the presence of 100 μM of serotonin. Tests were made in triplicate. The inhibition constants (Ki, nM) were calculated by non-linear regression analysis using the program EBDA/LIGAND described in Munson and Rodbard, Analytical Biochemistry, 1980, 107, 220, the respective part of which is hereby incorporated by reference and forms part of the disclosure.
The binding of the nitro-substituted phenyl-piperazine compounds to the 5-HT6 receptor was determined as described above.

Row | SMILES | Ki
1 | CN1CCN(c2ccc([N+](=O)[O-])c(NCc3ccc(F)cc3)c2)CC1 [Example 2, (4-Fluoro-benzyl)-[5-(4-methyl-piperazin-1-yl)-2-nitro-phenyl]-amine] | 172 nM
2 | CN1CCN(c2ccc([N+](=O)[O-])c(Nn3cccc3)c2)CC1 [Example 5, [5-(4-Methyl-piperazin-1-yl)-2-nitro-phenyl]-pyrrol-1-yl-amine] | 481 nM
3 | CN1CCN(c2ccc([N+](=O)[O-])c(Oc3ccccc3)c2)CC1 [Example 7, 1-Methyl-4-(4-nitro-3-phenoxy-phenyl)-piperazine] | 26.6 nM
4 | CN1CCN(c2ccc([N+](=O)[O-])c(NCc3ccco3)c2)CC1 [Example 11, Furan-2-ylmethyl-[5-(4-methyl-piperazin-1-yl)-2-nitro-phenyl]-amine] | 61.2 nM
5 | O=[N+]([O-])c1ccc(N2CCN(CCO)CC2)cc1NCCc1ccccc1 [Example 12, 2-[4-(4-Nitro-3-phenethylamino-phenyl)-piperazin-1-yl]-ethanol] | 6330 nM
6 | Cc1ccccc1OCCNc1cc(N2CCNCC2)ccc1[N+](=O)[O-] [Example 13, (2-Nitro-5-piperazin-1-yl-phenyl)-(2-o-tolyloxy-ethyl)-amine] | 162 nM
7 | CN1CCN(c2ccc([N+](=O)[O-])c(N3CCOCC3)c2)CC1 [Example 15, 4-[5-(4-Methyl-piperazin-1-yl)-2-nitro-phenyl]-morpholine] | 2710 nM
8 | CN1CCN(c2ccc([N+](=O)[O-])c(-n3nc(-c4ccccc4)c4ccccc4c3=O)c2)CC1 [Example 16, 2-[5-(4-Methyl-piperazin-1-yl)-2-nitro-phenyl]-4-phenyl-2H-phthalazin-1-one] | 732 nM
9 | CC1CN(c2ccc([N+](=O)[O-])c(NCCOc3ccc(Cl)cc3)c2)CC(C)N1 (stereo not drawn) [Example 17, [2-(4-Chloro-phenoxy)-ethyl]-[5-(3,5-dimethyl-piperazin-1-yl)-2-nitro-phenyl]-amine] | 5000 nM
10 | Cc1cc(C)n(-c2cc(N3CCN(C)CC3)ccc2[N+](=O)[O-])n1 [Example 21, 1-[3-(3,5-Dimethyl-pyrazol-1-yl)-4-nitro-phenyl]-4-methyl-piperazine] | 250 nM
11 | O=[N+]([O-])c1ccc(N2CCNCC2)cc1NCc1ccccc1 [Example 22, Benzyl-(2-nitro-5-piperazin-1-yl-phenyl)-amine] | 27.5 nM
12 | CN1CCN(c2ccc([N+](=O)[O-])c(NCCc3ccccc3)c2)CC1 [Example 23, [5-(4-Methyl-piperazin-1-yl)-2-nitro-phenyl]-phenethyl-amine] | 118 nM
13 | CN1CCN(c2ccc([N+](=O)[O-])c(NCc3cccnc3)c2)CC1 [Example 24, [5-(4-Methyl-piperazin-1-yl)-2-nitro-phenyl]-pyridin-3-ylmethyl-amine] | 1270 nM
14 | O=[N+]([O-])c1ccc(N2CCNCC2)cc1NCc1cccnc1 [Example 26, (2-Nitro-5-piperazin-1-yl-phenyl)-pyridin-3-ylmethyl-amine] | 1510 nM
15 | O=[N+]([O-])c1ccc(N2CCNCC2)cc1N1CCN(Cc2ccccc2)CC1 [Example 27, 1-Benzyl-4-(2-nitro-5-piperazin-1-yl-phenyl)-piperazine] | 3780 nM
16 | CN1CCN(c2ccc([N+](=O)[O-])c(NC(c3ccccc3)c3ccccc3)c2)CC1 [Example 29, Benzhydryl-[5-(4-methyl-piperazin-1-yl)-2-nitro-phenyl]-amine] | 4490 nM
17 | O=[N+]([O-])c1ccc(N2CCNCC2)cc1NCCOc1ccccc1 [Example 30, (2-Nitro-5-piperazin-1-yl-phenyl)-(2-phenoxy-ethyl)-amine] | 114 nM
18 | CN1CCN(c2ccc([N+](=O)[O-])c(-n3nc(-c4ccccc4)c4ccccc4c3=O)c2)CC1 [Example 31, 2-[5-(4-Methyl-piperazin-1-yl)-2-nitro-phenyl]-4-phenyl-2H-phthalazin-1-one] | 1710 nM
19 | Cc1cc(C)n(-c2cc(N3CCNCC3)ccc2[N+](=O)[O-])n1 [Example 32, 1-[3-(3,5-Dimethyl-pyrazol-1-yl)-4-nitro-phenyl]-piperazine] | 482 nM
20 | O=[N+]([O-])c1ccc(N2CCNCC2)cc1NCCc1ccccc1 [Example 33, (2-Nitro-5-piperazin-1-yl-phenyl)-phenethyl-amine] | 33.1 nM
21 | CN1CCN(c2ccc([N+](=O)[O-])c(NCCOc3ccc(C(C)(C)C)cc3)c2)CC1 [Example 45, [2-(4-tert-Butyl-phenoxy)-ethyl]-[5-(4-methyl-piperazin-1-yl)-2-nitro-phenyl]-amine] | 80.3 nM
22 | COc1ccc(OCCNc2cc(N3CCN(C)CC3)ccc2[N+](=O)[O-])cc1 [Example 46, [2-(4-Methoxy-phenoxy)-ethyl]-[5-(4-methyl-piperazin-1-yl)-2-nitro-phenyl]-amine] | 245 nM
23 | COc1ccccc1OCCNc1cc(N2CCN(C)CC2)ccc1[N+](=O)[O-] [Example 51, [2-(2-Methoxy-phenoxy)-ethyl]-[5-(4-methyl-piperazin-1-yl)-2-nitro-phenyl]-amine] | 19.1 nM
24 | O=[N+]([O-])c1ccc(N2CCNCC2)cc1NCc1ccc(Cl)cc1 [Example 52, (4-Chloro-benzyl)-(2-nitro-5-piperazin-1-yl-phenyl)-amine] | 8.3 nM
25 | O=[N+]([O-])c1ccc(N2CCN(Cc3ccccc3)CC2)cc1NCc1ccccc1 [Example 53, Benzyl-[5-(4-benzyl-piperazin-1-yl)-2-nitro-phenyl]-amine] | 34.3 nM
26 | Cc1ccccc1OCCNc1cc(N2CCN(C)CC2)ccc1[N+](=O)[O-] [Example 55, [5-(4-Methyl-piperazin-1-yl)-2-nitro-phenyl]-(2-o-tolyloxy-ethyl)-amine] | 26.1 nM
27 | CN1CCN(c2ccc([N+](=O)[O-])c(NCc3ccc(Cl)cc3)c2)CC1 [Example 56, (4-Chloro-benzyl)-[5-(4-methyl-piperazin-1-yl)-2-nitro-phenyl]-amine] | 59 nM
28 | O=[N+]([O-])c1ccc(N2CCNCC2)cc1NCc1ccco1 [Example 57, Furan-2-ylmethyl-(2-nitro-5-piperazin-1-yl-phenyl)-amine] | 25 nM
29 | O=[N+]([O-])c1ccc(N2CCNCC2)cc1NCCOc1ccc(Cl)cc1 [Example 58, [2-(4-Chloro-phenoxy)-ethyl]-(2-nitro-5-piperazin-1-yl-phenyl)-amine] | 290 nM
30 | CC(Nc1cc(N2CCN(C)CC2)ccc1[N+](=O)[O-])c1ccccc1 (stereo not drawn) [Example 59, [5-(4-Methyl-piperazin-1-yl)-2-nitro-phenyl]-(1-phenyl-ethyl)-amine] | 11.9 nM
